Paper PMC5218480 (PLoS ONE, 2017)

System: MV-4-11 cells
Experiment: Gene expression microarray analysis (Affymetrix PrimeView) and GSEA
Type: cell-based, human
Design: RFU PODN (11730768_x_at) / Fold change /veh PODN (11730768_x_at) / RFU LINC00158 (11744669_a_at) / Fold change /veh LINC00158 (11744669_a_at) / RFU DUSP10 (11751237_a_at) / Fold change /veh DUSP10 (11751237_a_at) / RFU ID3 (11757404_x_at) / Fold change /veh ID3 (11757404_x_at) / RFU PLEKHG5 (11737974_s_at) / Fold change /veh PLEKHG5 (11737974_s_at) / RFU LRRC4B (11730491_at) / Fold change /veh LRRC4B (11730491_at) / RFU GIMAP4 (11747438_a_at) / Fold change /veh GIMAP4 (11747438_a_at) / RFU KRT8 (11758183_x_at) / Fold change /veh KRT8 (11758183_x_at) / RFU CNN1 (11734310_a_at) / Fold change /veh CNN1 (11734310_a_at) / RFU VPS37D (11726825_at) / Fold change /veh VPS37D (11726825_at) / RFU C10orf10 (11716522_x_at) / Fold change /veh C10orf10 (11716522_x_at) / RFU KIR2DL2 /// KIR2DL4 /// KIR2DL5A /// KIR2DL5B /// KIR2DS1 /// KIR2DS2 /// KIR2DS3 /// KIR2DS4 /// KIR3DL3 /// KIR3DL3 /// KIR3DS1 (11738374_at) / Fold change /veh KIR2DL2 /// KIR2DL4 /// KIR2DL5A /// KIR2DL5B /// KIR2DS1 /// KIR2DS2 /// KIR2DS3 /// KIR2DS4 /// KIR3DL3 /// KIR3DL3 /// KIR3DS1 (11738374_at) / RFU C1QL1 (11718748_at) / Fold change /veh C1QL1 (11718748_at) / RFU TMPRSS4 (11747572_a_at) / Fold change /veh TMPRSS4 (11747572_a_at) / RFU HAMP (11756126_x_at) / Fold change /veh HAMP (11756126_x_at) / RFU RNFT2 (11725882_a_at) / Fold change /veh RNFT2 (11725882_a_at) / RFU NR4A2 (11747474_a_at) / Fold change /veh NR4A2 (11747474_a_at) / RFU ABCC12 (11746883_a_at) / Fold change /veh ABCC12 (11746883_a_at) / RFU TMEM136 (11760407_x_at) / Fold change /veh TMEM136 (11760407_x_at) / RFU CLDN22 /// WWC2 (11732394_at) / Fold change /veh CLDN22 /// WWC2 (11732394_at) / RFU HLA-DPB1 (11760878_x_at) / Fold change /veh HLA-DPB1 (11760878_x_at) / RFU SPINT1 (11716480_a_at) / Fold change /veh SPINT1 (11716480_a_at) / RFU GAP43 (11754022_s_at) / Fold change /veh GAP43 (11754022_s_at) / RFU A4GNT (11735810_at) / Fold change /veh A4GNT (11735810_at) / RFU PRB3 (11715151_x_at) / Fold change /veh PRB3 (11715151_x_at) / RFU TUBB4B (11761932_at) / Fold change /veh TUBB4B (11761932_at) / RFU CAPN14 (11732068_a_at) / Fold change /veh CAPN14 (11732068_a_at) / RFU TMCC2 (11721928_a_at) / Fold change /veh TMCC2 (11721928_a_at) / RFU IRGQ (11745062_a_at) / Fold change /veh IRGQ (11745062_a_at) / RFU FAM174B (11720279_a_at) / Fold change /veh FAM174B (11720279_a_at) / RFU TMPRSS4 (11748680_a_at) / Fold change /veh TMPRSS4 (11748680_a_at) / RFU FAM212B (11763350_a_at) / Fold change /veh FAM212B (11763350_a_at) / RFU PLEKHG5 (11743358_a_at) / Fold change /veh PLEKHG5 (11743358_a_at) / RFU ZSCAN30 (11745921_a_at) / Fold change /veh ZSCAN30 (11745921_a_at) / RFU CMKLR1 (11741424_a_at) / Fold change /veh CMKLR1 (11741424_a_at) / RFU LOC101060620 /// MAPK8IP1 (11723275_at) / Fold change /veh LOC101060620 /// MAPK8IP1 (11723275_at) / RFU SPTSSB (11747773_x_at) / Fold change /veh SPTSSB (11747773_x_at) / RFU PRSS12 (11739890_at) / Fold change /veh PRSS12 (11739890_at) / RFU BIN1 (11741810_x_at) / Fold change /veh BIN1 (11741810_x_at) / RFU WNT11 (11732464_a_at) / Fold change /veh WNT11 (11732464_a_at) / RFU C10orf10 (11716521_a_at) / Fold change /veh C10orf10 (11716521_a_at) / RFU C5orf56 (11738089_at) / Fold change /veh C5orf56 (11738089_at) / RFU CYB561 (11721691_x_at) / Fold change /veh CYB561 (11721691_x_at) / RFU ANKRD19P (11752326_a_at) / Fold change /veh ANKRD19P (11752326_a_at) / RFU OR2T12 /// OR2T33 /// OR2T8 (11738714_s_at) / Fold change /veh OR2T12 /// OR2T33 /// OR2T8 (11738714_s_at) / RFU VCAN (11748164_a_at) / Fold change /veh VCAN (11748164_a_at) / RFU JSRP1 (11732532_at) / Fold change /veh JSRP1 (11732532_at) / RFU KRTAP10-11 (11738290_x_at) / Fold change /veh KRTAP10-11 (11738290_x_at) / RFU MYO3A (11730013_a_at) / Fold change /veh MYO3A (11730013_a_at) / RFU EBF3 (11725865_a_at) / Fold change /veh EBF3 (11725865_a_at) / RFU CAMK2N1 (11719241_x_at) / Fold change /veh CAMK2N1 (11719241_x_at) / RFU C5orf56 (11738088_a_at) / Fold change /veh C5orf56 (11738088_a_at) / RFU OLFML3 (11715873_a_at) / Fold change /veh OLFML3 (11715873_a_at) / RFU LOC100653217 /// NTM (11731650_a_at) / Fold change /veh LOC100653217 /// NTM (11731650_a_at) / RFU MAPK11 (11762145_a_at) / Fold change /veh MAPK11 (11762145_a_at) / RFU FIZ1 (11724087_x_at) / Fold change /veh FIZ1 (11724087_x_at) / RFU OASL (11726364_x_at) / Fold change /veh OASL (11726364_x_at) / RFU SOX15 (11748057_x_at) / Fold change /veh SOX15 (11748057_x_at) / RFU CD79A (11719716_a_at) / Fold change /veh CD79A (11719716_a_at) / RFU HIST1H1D (11736915_at) / Fold change /veh HIST1H1D (11736915_at) / RFU CASKIN2 (11723855_a_at) / Fold change /veh CASKIN2 (11723855_a_at) / RFU LOC730098 (11760151_x_at) / Fold change /veh LOC730098 (11760151_x_at) / RFU OR4N2 (11742367_at) / Fold change /veh OR4N2 (11742367_at) / RFU PRRT2 (11749266_a_at) / Fold change /veh PRRT2 (11749266_a_at) / RFU SNX32 (11753110_a_at) / Fold change /veh SNX32 (11753110_a_at) / RFU CDHR5 (11726645_a_at) / Fold change /veh CDHR5 (11726645_a_at) / RFU RCAN1 (11760418_a_at) / Fold change /veh RCAN1 (11760418_a_at) / RFU FAM167A (11723789_a_at) / Fold change /veh FAM167A (11723789_a_at) / RFU FAM26E (11764081_at) / Fold change /veh FAM26E (11764081_at) / RFU ISYNA1 (11749810_s_at) / Fold change /veh ISYNA1 (11749810_s_at) / RFU ACY1 (11761880_at) / Fold change /veh ACY1 (11761880_at) / RFU 11764098_at / Fold change /veh 11764098_at / RFU SAMD14 (11745864_x_at) / Fold change /veh SAMD14 (11745864_x_at) / RFU NPB (11741838_a_at) / Fold change /veh NPB (11741838_a_at) / RFU TMPRSS6 (11731388_a_at) / Fold change /veh TMPRSS6 (11731388_a_at) / RFU KRTAP10-2 (11738614_at) / Fold change /veh KRTAP10-2 (11738614_at) / RFU ARHGAP8 /// PRR5-ARHGAP8 (11727945_x_at) / Fold change /veh ARHGAP8 /// PRR5-ARHGAP8 (11727945_x_at) / RFU KRTAP5-7 /// NADSYN1 (11734609_at) / Fold change /veh KRTAP5-7 /// NADSYN1 (11734609_at) / RFU RASL12 (11751679_a_at) / Fold change /veh RASL12 (11751679_a_at) / RFU CDKN2B (11736163_a_at) / Fold change /veh CDKN2B (11736163_a_at) / RFU PRF1 (11729649_at) / Fold change /veh PRF1 (11729649_at) / RFU, ZNF638 /// ZNF638-IT1 / Fold change vs veh, ZNF638 /// ZNF638-IT1 / RFU, PANK3 / Fold change vs veh, PANK3 / RFU, SH3YL1 / Fold change vs veh, SH3YL1 / RFU, ZEB2 / Fold change vs veh, ZEB2 / RFU, NRIP1 / Fold change vs veh, NRIP1 / RFU, PTTG1IP / Fold change vs veh, PTTG1IP / RFU, CAPN2 / Fold change vs veh, CAPN2 / RFU, MED14 / Fold change vs veh, MED14 / RFU, SNORA58 / Fold change vs veh, SNORA58 / RFU, C1orf63 / Fold change vs veh, C1orf63 / RFU, LRRFIP1 / Fold change vs veh, LRRFIP1 / RFU, NDUFAF7 / Fold change vs veh, NDUFAF7 / RFU, SLC12A2 / Fold change vs veh, SLC12A2 / RFU, IBTK / Fold change vs veh, IBTK / RFU, ESF1 / Fold change vs veh, ESF1 / Fold change vs veh, TMEM50B / RFU, TAOK1 / Fold change vs veh, TAOK1 / RFU, ACBD3 / Fold change vs veh, ACBD3 / RFU, TMA16 / Fold change vs veh, TMA16 / RFU, RWDD3 / Fold change vs veh, RWDD3 / RFU, BCAT1 / Fold change vs veh, BCAT1 / RFU, EDEM3 / Fold change vs veh, EDEM3 / RFU, TMEM33 / Fold change vs veh, TMEM33 / RFU, WDR75 / Fold change vs veh, WDR75 / RFU, AHCTF1 / Fold change vs veh, AHCTF1 / RFU, TFRC / Fold change vs veh, TFRC / RFU, ZDHHC17 / Fold change vs veh, ZDHHC17 / RFU, NOM1 / Fold change vs veh, NOM1 / RFU, ARL8B / Fold change vs veh, ARL8B / RFU, ZBTB11 / Fold change vs veh, ZBTB11 / RFU, TAMM41 / Fold change vs veh, TAMM41 / RFU, KIAA1704 /// LOC100996395 / Fold change vs veh, KIAA1704 /// LOC100996395 / RFU, ING1 / Fold change vs veh, ING1 / RFU, TRMT61B / Fold change vs veh, TRMT61B / RFU, FUBP3 / Fold change vs veh, FUBP3 / RFU, TP53 / Fold change vs veh, TP53 / RFU, TNKS2 / Fold change vs veh, TNKS2 / RFU, ZFP14 / Fold change vs veh, ZFP14 / RFU, ACTR2 / Fold change vs veh, ACTR2 / RFU, PPP3R1 / Fold change vs veh, PPP3R1 / RFU, PIK3R1 / Fold change vs veh, PIK3R1 / RFU, HNRNPA1 / Fold change vs veh, HNRNPA1 / RFU, RNF170 / Fold change vs veh, RNF170 / RFU, ZNF28 / Fold change vs veh, ZNF28 / RFU, RNGTT / Fold change vs veh, RNGTT / RFU, OGT / Fold change vs veh, OGT / RFU, BRD1 / Fold change vs veh, BRD1 / RFU, MARS / Fold change vs veh, MARS / RFU, ZNF655 / Fold change vs veh, ZNF655 / RFU, FAHD1 / Fold change vs veh, FAHD1 / RFU, BDP1 / Fold change vs veh, BDP1 / RFU, LRRCC1 / Fold change vs veh, LRRCC1 / RFU, ARID1A / Fold change vs veh, ARID1A / RFU, ZNF146 / Fold change vs veh, ZNF146 / RFU, ZNF330 / Fold change vs veh, ZNF330 / RFU, GPN3 / Fold change vs veh, GPN3 / RFU, C9orf123 / Fold change vs veh, C9orf123 / RFU, N4BP2L2 / Fold change vs veh, N4BP2L2 / RFU, ARFIP1 / Fold change vs veh, ARFIP1 / RFU, FAM179B / Fold change vs veh, FAM179B / RFU, BCL10 / Fold change vs veh, BCL10 / RFU, UHRF1BP1L / Fold change vs veh, UHRF1BP1L / RFU, BET1 / Fold change vs veh, BET1 / RFU, CNOT2 / Fold change vs veh, CNOT2 / RFU, ZNF268 / Fold change vs veh, ZNF268 / Fold change vs veh, ZNF507 / RFU, DGCR2 / Fold change vs veh, DGCR2 / RFU, WDSUB1 / Fold change vs veh, WDSUB1 / Fold change vs veh, HSP90B1 /// MIR3652 / RFU, ADSS / Fold change vs veh, ADSS / RFU, GK / Fold change vs veh, GK / RFU, ZNF148 / Fold change vs veh, ZNF148 / RFU, TAF9 / Fold change vs veh, TAF9 / RFU, SLC1A5 / Fold change vs veh, SLC1A5 / RFU, SLMO2 / Fold change vs veh, SLMO2 / RFU, ABCC4 / Fold change vs veh, ABCC4 / RFU, LOC101060439 /// RAP1B / Fold change vs veh, LOC101060439 /// RAP1B / RFU, RFX7 / Fold change vs veh, RFX7 / RFU, GTPBP10 / Fold change vs veh, GTPBP10 / RFU, CNEP1R1 / Fold change vs veh, CNEP1R1 / RFU, BIVM-ERCC5 /// ERCC5 / Fold change vs veh, BIVM-ERCC5 /// ERCC5 / RFU, ILF3 / Fold change vs veh, ILF3 / RFU 11762660_at / Fold change /veh 11762660_at / RFU VCAN (11757783_s_at) / Fold change /veh VCAN (11757783_s_at) / RFU DDX43 (11728927_at) / Fold change /veh DDX43 (11728927_at) / RFU KRT8 (11758188_x_at) / Fold change /veh KRT8 (11758188_x_at) / RFU NKD1 (11759106_at) / Fold change /veh NKD1 (11759106_at) / RFU SRD5A1 (11742802_a_at) / Fold change /veh SRD5A1 (11742802_a_at) / RFU TPSAB1 /// TPSB2 (11721975_s_at) / Fold change /veh TPSAB1 /// TPSB2 (11721975_s_at) / RFU GSTM3 (11746129_a_at) / Fold change /veh GSTM3 (11746129_a_at) / RFU IL23R (11737362_x_at) / Fold change /veh IL23R (11737362_x_at) / RFU TMEM51 (11727254_a_at) / Fold change /veh TMEM51 (11727254_a_at) / RFU PIWIL2 (11732686_x_at) / Fold change /veh PIWIL2 (11732686_x_at) / RFU ORM1 (11744905_x_at) / Fold change /veh ORM1 (11744905_x_at) / RFU CCDC152 (11743942_at) / Fold change /veh CCDC152 (11743942_at) / RFU ECM1 (11717891_a_at) / Fold change /veh ECM1 (11717891_a_at) / RFU IL23R (11748794_a_at) / Fold change /veh IL23R (11748794_a_at) / RFU TNFAIP8L3 (11732012_x_at) / Fold change /veh TNFAIP8L3 (11732012_x_at) / RFU MBOAT4 (11741988_at) / Fold change /veh MBOAT4 (11741988_at) / RFU 11764193_at / Fold change /veh 11764193_at / RFU TMEM53 (11763286_at) / Fold change /veh TMEM53 (11763286_at) / RFU MAGEB2 (11727129_at) / Fold change /veh MAGEB2 (11727129_at) / RFU TMEM200A (11744735_a_at) / Fold change /veh TMEM200A (11744735_a_at) / RFU CCDC152 (11751479_a_at) / Fold change /veh CCDC152 (11751479_a_at) / RFU FAM211A (11726209_a_at) / Fold change /veh FAM211A (11726209_a_at) / RFU RGS16 (11746705_a_at) / Fold change /veh RGS16 (11746705_a_at) / RFU VCAN (11755009_s_at) / Fold change /veh VCAN (11755009_s_at) / RFU RHOB (11743442_s_at) / Fold change /veh RHOB (11743442_s_at) / RFU RGS16 (11720943_a_at) / Fold change /veh RGS16 (11720943_a_at) / RFU RGS16 (11720944_at) / Fold change /veh RGS16 (11720944_at) / RFU, VPS4B / Fold change vs veh, VPS4B / RFU, CREB1 / Fold change vs veh, CREB1 / RFU, DNAJC13 / Fold change vs veh, DNAJC13 / RFU, GNAQ / Fold change vs veh, GNAQ / RFU, CDK5R1 / Fold change vs veh, CDK5R1 / RFU, ZRANB3 / Fold change vs veh, ZRANB3 / RFU, CUL4A / Fold change vs veh, CUL4A / RFU, CCNY / Fold change vs veh, CCNY / RFU, UFL1 / Fold change vs veh, UFL1 / RFU, COG3 / Fold change vs veh, COG3 / RFU, DIAPH2 / Fold change vs veh, DIAPH2 / RFU, SKA2 / Fold change vs veh, SKA2 / RFU, AFF3 / Fold change vs veh, AFF3 / RFU, LMF1 / Fold change vs veh, LMF1 / RFU, IPO11 / Fold change vs veh, IPO11 / RFU, DFFB / Fold change vs veh, DFFB / RFU, FOXP1 / Fold change vs veh, FOXP1 / RFU, CARD8 / Fold change vs veh, CARD8 / RFU, STRN3 / Fold change vs veh, STRN3 / RFU, ADK / Fold change vs veh, ADK / RFU, RASSF2 / Fold change vs veh, RASSF2 / RFU, WIPF1 / Fold change vs veh, WIPF1 / RFU, LARP1B / Fold change vs veh, LARP1B / RFU, RASA1 / Fold change vs veh, RASA1 / RFU, RB1 / Fold change vs veh, RB1 / RFU, PPFIA1 / Fold change vs veh, PPFIA1 / RFU, MAT2A / Fold change vs veh, MAT2A / RFU, CCT5 / Fold change vs veh, CCT5 / RFU, WDR92 / Fold change vs veh, WDR92 / RFU, CUX1 / Fold change vs veh, CUX1 / RFU, TTC7A / Fold change vs veh, TTC7A / RFU, TMEM135 / Fold change vs veh, TMEM135 / RFU, DEPTOR / Fold change vs veh, DEPTOR / RFU, CPM / Fold change vs veh, CPM / RFU, DNAJB6 / Fold change vs veh, DNAJB6 / RFU, CACNA2D3 / Fold change vs veh, CACNA2D3 / RFU, DTX4 / Fold change vs veh, DTX4 / RFU, TFCP2 / Fold change vs veh, TFCP2 / RFU, GMCL1 /// GMCL1P1 / Fold change vs veh, GMCL1 /// GMCL1P1 / RFU, AEBP2 / Fold change vs veh, AEBP2 / RFU, SNHG1 /// SNORD22 /// SNORD25 /// SNORD26 /// SNORD27 /// SNORD28 /// SNORD29 /// SNORD31 / Fold change vs veh, SNHG1 /// SNORD22 /// SNORD25 /// SNORD26 /// SNORD27 /// SNORD28 /// SNORD29 /// SNORD31 / Fold change (Aza/veh), C12orf56 (ProbeSet 11735607_a_at) / Fold change (ACY-1035/veh), C12orf56 (ProbeSet 11735607_a_at) / Fold change (Aza/veh), FGFR1OP (ProbeSet 11751329_s_at) / Fold change (ACY-1035/veh), FGFR1OP (ProbeSet 11751329_s_at) / Fold change (Aza/veh), VPS36 (ProbeSet 11739960_a_at) / Fold change (ACY-1035/veh), VPS36 (ProbeSet 11739960_a_at) / RFU SYPL1 (11715823_x_at) / Fold change /veh SYPL1 (11715823_x_at) / RFU IGFBP7 (11715501_s_at) / Fold change /veh IGFBP7 (11715501_s_at) / RFU REEP3 (11722064_at) / Fold change /veh REEP3 (11722064_at) / RFU IGLL1 (11728026_x_at) / Fold change /veh IGLL1 (11728026_x_at): dose or concentration left out as unconfirmed
Settings: ProbeSet 11749781_s_at; LIST B

Nc1ncn([C@@H]2O[C@H](CO)[C@@H](O)[C@H]2O)c(=O)n1 [azacitidine]
RFU, BCAT1: 11.21 RFU
